Format in all cases: cell-based
Test [1] has as its system T2 cells loaded with corresponding peptides. Nature of the test: 51Cr release assay, peptide-CTLs against T2 cells loaded with peptide. The conditions noted are these: for killing of T2 cells loaded with the peptide by peptide-CTLs: CTLs stimulated three periods, 4 hours, effector/target 40:1 to 5:1; for killing of peptide-stimulated T2 cells after MHC class I molecule blocking: anti-human MHC class I antibodies 1:20 dilution. The source says: (§1) The freeze-stored autologous lymphocytes were stimulated by DCs loaded with the peptides and KLH, to obtain peptide-specific CTLs (peptide-CTLs). One period consists of 7 days. On Day 3 of every period, 10 U/ml rh IL-2 was supplemented. Finally, peptide-CTLs were obtained after a 3-period stimulation.
(§2) 6B11-CTLs stimulated for one period were harvested and used as reacting cells in cell proliferation assay, ELISA cytokine assay and IFN-γ ELISPOT assay. 6B11-CTLs and peptide-CTLs stimulated for 3 periods were harvested for use in ^51Cr release assay as effector cells.
(§3) 6B11-CTLs and peptide-CTLs stimulated for three periods were used as effector cells. T2 cells, HOC1A cells and HLE cells loaded with corresponding peptides were used as target cells. Standard ^51Cr release assay was carried out for 4 hours. Target cells (1×10^6 cells) were placed into 0.5 ml RPMI 1640 culture medium (containing 5% fetal bovine serum). 100 μCi Na2^51CrO4 was added. The labeling reaction was allowed to continue overnight at 37° C. Then the cells were washed by cold RPMI 1640 culture medium (containing 5% fetal bovine serum) for three times to terminate the labeling reaction. Target cells (5×10^3 cells) were placed into 100 μl culture medium and then mixed with an equal volume of effector cells in a 96-well plate. The ratio of effector/target was set as 40:1, 20:1, 10:1 and 5:1. Spontaneous release wells contained target cells and the culture medium, while the maximal release wells contained target cells and corresponding culture medium containing 1% Triton X-100. The plates were gently spun using a plate centrifuge for 2 minutes and then co-incubated at 37° C. under 5% CO2 for 4 hours. The plates were gently spun again. 100 μl of supernatant per well was transferred to a counting tube and labeled as appropriate. The cpm values were determined by a γ counter. All assays were performed in duplicate. The ratio of cpm values of the spontaneous release well to the maximal release well was <20%. Killing ratio (%)=[(mean cpm value of the experimental wells−mean cpm value of the spontaneous release wells)/(mean cpm value of the maximal release wells−mean cpm value of the spontaneous release wells)]×100
(§4) For further analyzing the above-mentioned killing effect, the target cells were blocked by applying anti-human MHC class I antibodies, for evaluating the effect of CTL epitope peptides. Firstly, the optimal concentration of MHC class I antibodies was determined to be 1:20 dilution (FIG. 9). […] The killing effect were not disturbed by MHC class I antibodies, i.e., unrelated to the effect of CD8 T cells. […] Its killing effect was disturbed by MHC class I antibodies, which was mainly mediated by CD8 T cells (FIG. 10). […] The former was unrelated to CD8 T cells whereas the latter was mediated by CD8 T cells.

In test [2] the test system is K562 cells. Nature of the test: 51Cr release assay, specific CTLs against K562 cells. Conditions: non-specific killing.
The test system of test [3] is HOC1A cells. The test is described as follows: 51Cr release assay, specific CTLs against HOC1A cells. The conditions noted are these: for killing of HOC1A cells by peptide-CTLs: CTLs stimulated three periods, 4 hours, effector/target 40:1 to 5:1; for killing effect on HOC1A cells, comparison of antigens: T cells stimulated with single peptide 30 μg/ml, or VH CDR3 15 μg/ml plus VL CDR3 15 μg/ml, or 6B11 40 μg/ml; for killing of HOC1A cells after MHC class I molecule blocking: anti-human MHC class I antibodies 1:20 dilution.
Text: as §1, §2, §3, §4
For investigating the specificity and effectiveness of the killing effect of T-cell epitope peptides, the following experiments were carried out. T cells were stimulated by VH CDR3 peptide (30 μg/ml, final concentration), VL CDR 3 peptide (30 μg/ml), VH CDR3 peptide (15 μg/ml) and VL CDR3 peptide (15 μg/ml) as well as anti-idiotype antibody 6B11 (40 μg/ml), resulting in corresponding specific CTLs, which were used as effector cells. HOC1A cells were used as target cells for performing ^51Cr release assay, in order to compare the effectiveness of each antigen in stimulating immune responses. […] The killing effect of the specific CTLs obtained by stimulating with the combination of VH CDR3 peptide and VL CDR3 peptide was even stronger, which indicated a synergic effect between them. The killing effect of them was also stronger than that of 6B11-CTLs (FIG. 12). […] Their effects were more accurate than that of anti-idiotype antibody 6B11.

In test [4] the test system is HOC1A cells. Nature of the test: Cytokine ELISA of supernatant of CTLs co-incubated with HOC1A cells. Conditions: CTL:HOC1A 40:1, 48 hours, double-antibody-sandwich ELISA. On the procedure: 6B11-CTLs, VH CDR3-CTLs and VL CDR3-CTLs were mixed with target HOC1A cells in the ratio of 40:1 respectively and co-incubated at 37° C. under 5% CO2 for 48 hours. The supernatant was harvested, and the contents of IL-2, IFN-γ and IL-4 determined by double-antibody-sandwich ELISA. […] VH CDR3 peptide- and VL CDR3 peptide-specific CTLs could also secrete high levels of IL-2 and IFN-γ while the secretion of IL-4 was in a low level, which was in a similar trend as that of the immune response induced by anti-idiotype antibody 6B11. This indicated from a different perspective that VH CDR3 peptide and VL CDR3 peptide were involved in the induction of T cell immune response derived from anti-idiotype antibody 6B11 (FIG. 13).
A general note: An ELISA detects its analyte on a solid surface through an enzyme-linked reagent.

“IALITTKIAWYFDV (VH CDR3 region peptide) [VH CDR3 peptide]”: in test [1], the “killing of T2 cells loaded with the peptide by peptide-CTLs” value was “could kill” and the “killing of peptide-stimulated T2 cells after MHC class I molecule blocking” value was “could still kill”. Besides, the “killing of K562 cells by specific CTLs” value in test [2] is listed as “could kill”. In test [3], the “killing of HOC1A cells by peptide-CTLs” value is recorded as “could kill”; the “killing effect on HOC1A cells, comparison of antigens” value is given as “could kill”; the “killing of HOC1A cells after MHC class I molecule blocking” value was “could still kill”. In test [4], the “IFN-γ secretion by CTLs” value is recorded as “high levels”, the “IL-2 secretion by CTLs” value was “high levels” and the “IL-4 secretion by CTLs” value is on record as “low level”.
As for SQSTHFPYT (VL CDR3 region peptide), in test [1], the “killing of T2 cells loaded with the peptide by peptide-CTLs” value is given as “could also kill” and the “killing of peptide-stimulated T2 cells after MHC class I molecule blocking” value is on record as “significantly inhibited”. Further, the “killing of K562 cells by specific CTLs” value in test [2] is on record as “could not kill”. Also, in test [3], the “killing of HOC1A cells by peptide-CTLs” value is given as “could also kill”; the “killing effect on HOC1A cells, comparison of antigens” value is on record as “could kill”; the “killing of HOC1A cells after MHC class I molecule blocking” value was “significantly inhibited”. Moreover, in test [4], the “IFN-γ secretion by CTLs” value is listed as “high levels”, the “IL-2 secretion by CTLs” value is listed as “high levels” and the “IL-4 secretion by CTLs” value is given as “low level”.
